We go through 1 molecule from patent EP4775586A1, “DEUTERATED TETRACYCLIC DERIVATIVE AND USE THEREOF” (priority 2023, dated 2025).

Series [1] has as its system Mycobacterium tuberculosis H37Rv. As to the kind of experiment: Minimum inhibitory concentration (MIC90) against Mycobacterium tuberculosis H37Rv, Middlebrook 7H9, 96-well plate, 15 days. Type of series: cell-based. The settings on record: Mycobacterium tuberculosis H37Rv, 15 days of incubation, 90% inhibition of growth, visual reading.
For a further series, the system named is CYP2A6. The series is classed as in vitro ADME, mouse. As to the method:
(§1) This example was to detect the CYP450 metabolic enzyme phenotype of the deuterated compound YF027 and its non-deuterated control compound A (using a CYP450 enzyme metabolic phenotype research kit (recombinant enzymatic method/7 enzymes)-mouse liver microsome test).
(§2) • a. The test compound was prepared into a 40 mM stock solution for later use. 2.5 µL of the stock solution was taken and diluted with DMSO to a test compound concentration of 200 µM, and the compound at this concentration was used in subsequent tests. • b. The working solution concentration of the mixed positive substrates, phenacetin and testosterone, was 200 µM.
(§3) 1) The components of the kit were thawed in an ice bath. The mixture was well mixed by vortexing and then placed on ice for later use. 2) In addition to the microsomes, the other components of the incubation systems were mixed according to the ratios and well mixed by pipetting, and the ratios of the incubation systems are shown below; Table 6. Incubation system of positive control group
(§4) The inhibitors were quinidine, naphthoflavone, pilocarpine, sodium diethyldithiocarbamate, ticlopidine, ketoconazole, and sulfaphenazole, which corresponded to the inhibition of CYP450 enzymes CYP2D6, CYP1A2, CYP2A6, CYP2E1, CYP2C19, CYP3A4, and CYP2C9, respectively. Table 9. Incubation system of negative control group
(§5) 3) Except for the negative control group (Table 9), 3.125 µL of liver microsomes was added to each of the above incubation systems to prepare 125 µL of reaction solution. The reaction solutions were well mixed by vortexing, and then placed in a water bath at 37 °C to initiate the reaction. A timer was set. 4) At time points of 0 min and 90 min, 50 µL of reaction solution was taken, and a pre-cooled acetonitrile solution was added to the reaction solution. The mixture was quickly well mixed by vortexing to stop the reaction. 5) Mass spectrometry detection pretreatment of reaction solution
(§6) The reaction solution was cryopreserved in a refrigerator at -80 °C overnight and then centrifuged for mass spectrometry detection.
(§7) The detection values after 90 min of incubation were processed as ratios relative to the 0-min detection values to determine the metabolic rate of the compounds in different experimental groups after 90 min. The metabolic inhibition rate was then calculated using the formula: Inhibition rate (%) = (1 - metabolic rate of sample with inhibitor/metabolic rate of sample without inhibitor) × 100%, as shown in Table 10 below. […] The metabolic inhibition rate reflects the effect on the metabolic elimination of the drug after adding different selective inhibitors. Therefore, when the metabolic inhibition rate of a specific enzyme is ≥ 25%, the contribution of the specific enzyme to the clearance of the drug under study can be inferred to be ≥ 25% based on the results of the in vitro metabolism study.

The test system of another series is CYP2C19. Type of series: in vitro ADME, mouse. How it is done:
as §1, §2, §3, §4, §5, §6, §7

The next series relates to CYP2C9. Type of series: in vitro ADME, mouse. How it is done: as §1, §2, §3, §4, §5, §6, §7
For the next series, the system named is CYP2D6. Type of series: in vitro ADME, mouse. As to the method:
as §1, §2, §3, §4, §5, §6, §7

Another series concerns CYP3A4. The series is classed as in vitro ADME, mouse. As to the method:
as §1, §2, §3, §4, §5, §6, §7

Series [2] relates to Mycobacterium tuberculosis H37Rv. Type of series: in vivo, BALB/c mice.
Series [3] is described as follows: 28-day repeat-dose toxicity study in mice. The series is classed as in vivo, Balb/c mice. As to the method:
Administration groups of the compound YF027 of the present disclosure and its non-deuterated control compound A were set for a 28-day repeat-dose toxicity study in mice. Each compound was administered to 10 Balb/c mice (5 females and 5 males, purchased from Beijing Vital River Laboratory Animal Technology Co., Ltd.) by intragastric administration. The administration was performed once daily for 6 consecutive days a week for 4 consecutive weeks, and an 8% Tween 80 vehicle control group (10 Balb/c mice, 5 females and 5 males) was set for administration at the same volume using the same method. Table 12. Administration information of repeat-dose toxicity assay
During the administration period, the mice were observed every day. The body weight, appearance signs, behavior and activity, fecal traits, and local reactions at the site of administration were recorded. After the end of the administration, the gross anatomy was performed on the mice in the administration group and the control group. The serum of the mice was collected, and the heart, liver, spleen, kidney, lung, and brain tissues and organs were weighed to calculate organ coefficients. The tissue samples of all groups were subjected to histopathological detection, and the serum samples were analyzed for biochemical parameters of liver and kidney functions. The serum biochemical parameters included: alanine aminotransferase (ALT), aspartate aminotransferase (AST), alkaline phosphatase (ALP), urea (UREA), creatinine (CREA), total protein (TP), and albumin (ALB). Statistical analysis was performed to evaluate potential toxic effects of the compounds.

The term MIC90 denotes an inhibitory concentration at the 90% level, which refers to growth in some studies and to a panel of isolates in others.

Take `Cl.[2H]C1([2H])CCCC([2H])([2H])N1C([2H])([2H])c1c(O)cc(C(C)(C)C)c2oc3c4ccc(O)cc4oc(=O)c3c12` [YF027, 10-(tert-Butyl)-3,8-dihydroxy-7-((piperidin-1-yl-2,2,6,6-d4)methyl-d2)-6H-benzofuran[3,2-c]chromen-6-one hydrochloride]: the MIC90 in series [1] is ≤3.9 ng/mL. Also, the Inhibition rate in the series with CYP2A6 is given as 14.0%; with CYP2C19 it was -5.7%; in the series with CYP2C9, 3.7%; in the series with CYP2D6, -1.3%; with CYP3A4, 16.5%. The “pulmonary Mycobacterium tuberculosis clearance rate” value in series [2] (100 mg/kg intragastrically, 4 weeks, mice) is recorded as 99.0%. The “reduction of pulmonary bacterial load” value in series [2] (mouse, in vivo) came to 1.98 log. Besides, the “toxic response after repeated administration” value in series [3] (100 mg/kg for 28 consecutive days, mice) was “did not produce a significant toxic response”. Also, in series [3] (100 mg/kg intragastric, once daily, 6 days a week, 4 weeks, Balb/c mice), the “mortality during the administration period” value is given as “no mice died”. Moreover, the “toxicity compared with the non-deuterated compound A” value in series [3] (same dosing conditions, 100 mg/kg, 28 days, mice) is listed as “no increased toxicity was observed”.
